Measurements: US6596719B1 (Actelio Pharmaceuticals Ltd., priority 1999, dated 2003)
Read-outs that look alike come from different tables or passages of the source.

Assays:
ETB receptors = molecular target: T1, ETB receptors (Rattus norvegicus, UniProt P21451); experiment: Inhibition of sarafotoxin S6c-induced contractions on isolated rat tracheal rings; conditions: for pA2 value ETB: rat tracheal rings, contraction induced by sarafotoxin S6c, 10 min incubation
T1 sequence (P21451 27-442): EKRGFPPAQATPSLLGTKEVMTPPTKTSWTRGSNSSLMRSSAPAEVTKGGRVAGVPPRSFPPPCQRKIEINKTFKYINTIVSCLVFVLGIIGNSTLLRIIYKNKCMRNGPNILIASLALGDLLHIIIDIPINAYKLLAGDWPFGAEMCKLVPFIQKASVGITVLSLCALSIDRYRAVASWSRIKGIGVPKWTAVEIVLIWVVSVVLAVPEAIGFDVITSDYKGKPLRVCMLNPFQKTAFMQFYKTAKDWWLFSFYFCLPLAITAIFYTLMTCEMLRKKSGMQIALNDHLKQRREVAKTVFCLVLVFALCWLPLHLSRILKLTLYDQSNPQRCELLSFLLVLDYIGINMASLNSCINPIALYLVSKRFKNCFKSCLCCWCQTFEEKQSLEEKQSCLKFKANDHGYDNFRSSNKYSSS

[1] = molecular target: T2, human recombinant ETB receptors (Homo sapiens, UniProt P24530); experiment: Inhibition of endothelin binding to membranes from CHO cells carrying human ET receptors (ETB)
T2 construct: expressed in transfected cells; host or cells: CHO cells (microsomal membranes)
T2 sequence (P24530 27-442): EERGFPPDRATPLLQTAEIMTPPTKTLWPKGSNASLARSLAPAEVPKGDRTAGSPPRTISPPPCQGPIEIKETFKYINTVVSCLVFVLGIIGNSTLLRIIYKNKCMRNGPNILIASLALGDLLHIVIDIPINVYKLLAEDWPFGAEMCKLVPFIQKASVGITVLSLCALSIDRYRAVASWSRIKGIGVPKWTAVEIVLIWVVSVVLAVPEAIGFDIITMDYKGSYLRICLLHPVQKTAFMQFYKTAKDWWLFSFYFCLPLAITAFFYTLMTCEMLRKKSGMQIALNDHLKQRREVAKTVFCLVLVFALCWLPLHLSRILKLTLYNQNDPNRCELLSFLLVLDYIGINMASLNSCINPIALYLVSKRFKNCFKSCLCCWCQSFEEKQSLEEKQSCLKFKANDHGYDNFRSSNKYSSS
Procedure: 1) Inhibition of Endothelin Binding to Membranes from CHO Cells Carrying Human ET Receptors:
For competition binding studies, membranes of CHO cells expressing human recombinant ETA or ETB receptors were used. Microsomal membranes from recombinant CHO cells were prepared and the binding assay made as previously described (Breu V., et al, FEBS Lett 1993; 334:210).
The assay was performed in 200 uL 50 mM Tris/HCl buffer, pH 7.4, including 25 mM MnCl2, 1 mM EDTA and 0.5% (w/v) BSA in polypropylene microtiter plates. […]. […] After two h, the membranes were filtered on, filterplates containing GF/C filters (Unifilterplates from Canberra Packard S. A. Zürich, Switzerland). To each well, 50 uL of scintillation cocktail was added (MicroScint 20, Canberra Packard S. A. Zürich, Switzerland) and the filter plates counted in a microplate counter (TopCount, Canberra Packard S. A. Zürich, Switzerland).
All the test compounds were dissolved, diluted and added in DMSO. […] […].

ETA receptors = molecular target: T3, ETA receptors (Rattus norvegicus, UniProt P26684); experiment: Inhibition of endothelin-1-induced contractions on isolated rat aortic rings; conditions: for pA2 value ETA: rat aortic rings, contraction induced by endothelin-1, 10 min incubation
T3 sequence (P26684 21-426): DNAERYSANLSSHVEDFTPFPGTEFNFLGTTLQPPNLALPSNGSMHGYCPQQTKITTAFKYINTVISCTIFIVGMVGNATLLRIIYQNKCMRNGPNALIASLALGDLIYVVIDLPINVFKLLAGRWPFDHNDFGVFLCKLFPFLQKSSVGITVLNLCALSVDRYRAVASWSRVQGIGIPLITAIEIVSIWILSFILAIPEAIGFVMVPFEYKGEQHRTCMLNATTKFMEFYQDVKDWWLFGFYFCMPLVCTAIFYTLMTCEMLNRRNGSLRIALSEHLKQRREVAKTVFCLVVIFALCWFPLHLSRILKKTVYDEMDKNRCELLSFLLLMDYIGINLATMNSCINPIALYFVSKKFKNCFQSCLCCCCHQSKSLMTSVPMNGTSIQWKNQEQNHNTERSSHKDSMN

[2] = molecular target: T4, human recombinant ETA receptors (Homo sapiens, UniProt P25101); experiment: Inhibition of endothelin binding to membranes from CHO cells carrying human ET receptors (ETA)
T4 construct: expressed in transfected cells; host or cells: CHO cells (microsomal membranes)
T4 sequence (P25101 21-427): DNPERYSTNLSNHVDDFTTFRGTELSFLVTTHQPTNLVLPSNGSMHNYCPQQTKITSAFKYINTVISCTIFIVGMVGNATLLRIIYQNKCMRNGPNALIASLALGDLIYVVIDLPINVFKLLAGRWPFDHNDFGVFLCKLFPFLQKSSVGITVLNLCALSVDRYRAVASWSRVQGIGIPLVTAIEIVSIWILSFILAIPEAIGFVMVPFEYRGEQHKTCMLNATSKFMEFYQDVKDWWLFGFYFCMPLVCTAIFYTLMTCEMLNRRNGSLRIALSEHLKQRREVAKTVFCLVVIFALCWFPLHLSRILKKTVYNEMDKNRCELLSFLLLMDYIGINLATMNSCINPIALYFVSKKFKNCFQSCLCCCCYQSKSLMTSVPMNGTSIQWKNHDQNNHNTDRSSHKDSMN

[3] = membranes of CHO cells expressing human recombinant ETA receptors, 8 pM [125I]ET-1, 2 h at 20° C.
[4] = membranes of CHO cells expressing human recombinant ETB receptors, 8 pM [125I]ET-1, 2 h at 20° C.

| Compound | pA2 value ETB (ETB receptors) | IC50 [1] | pA2 value ETA (ETA receptors) | IC50 [2, 3] | Kb (ETB receptors) | Kb (ETA receptors) | IC50 [2] | IC50 [1, 4] |
| --- | --- | --- | --- | --- | --- | --- | --- | --- |
| COc1ccccc1Oc1c(NS(=O)(=O)c2ccc(C(C)(C)C)cc2)nc(-c2ncccn2)nc1OCCNS(=O)(=O)c1cccs1 [Example 7, p-tert.-butyl-N-[6-(ethoxy-2-(2-thiophenesulfonamido))-5-(o-methoxyphenoxy)-2-(2-pyrimidinyl)-4-pyrimidinyl]benzene-sulfonamide] | 7.15 | 15.8 nM | 6.08 | 63.6 nM | – | – | – | – |
| COc1ccccc1Oc1c(NS(=O)(=O)c2ccc(C(C)C)cn2)nc(-c2ccncc2)nc1OCCNS(=O)(=O)C(C)C [Example 10, 5-i.-propyl-N-[6-(ethoxy-2-(2-propanesulfonamido))-5-(o-methoxyphenoxy)-2-(4-pyridyl)-4-pyrimidinyl]pyridine-2-sulfonamide] | – | 193 nM | – | – | 1260 nM | 186 nM | 67.2 nM | – |
| COc1ccccc1Oc1c(NS(=O)(=O)c2ccc(C(C)C)cn2)nc(-c2cc(OC)c(OC)c(OC)c2)nc1OCCNS(=O)(=O)c1ccc(C)cc1 [Example 11, 5-i.-propyl-N-[6-(ethoxy-2-(4-methylbenzenesulfonamido))-5-(o-methoxyphenoxy)-2-(3,4,5-trimethoxyphenyl)-4-pyrimidinyl]pyridine-2-sulfonamide] | 7.46 | 4.3 nM | – | 5110 nM | – | – | – | – |
| COc1ccccc1Oc1c(NS(=O)(=O)c2ccc(C(C)C)cn2)nc(-c2ccncc2)nc1OCCNS(=O)(=O)c1ccc(C)cc1 [Example 12] | – | 73.3 nM | – | – | 513 nM | 851 nM | 2120 nM | – |
| COc1ccccc1Oc1c(NS(=O)(=O)c2ccc(C(C)C)cn2)nc(-c2cc(OC)c(OC)c(OC)c2)nc1OCCNS(=O)(=O)c1cccs1 [Example 15, 5-i.-propyl-N-[6-(ethoxy-2-thiophenesulfonamido)-5-(o-methoxyphenoxy)-2-(3,4,5-trimethoxyphenyl)-4-pyrimidinyl]pyridine-2-sulfonamide] | – | 7.3 nM | – | 1320 nM | 40.7 nM | – | – | – |
| CCS(=O)(=O)NCCOc1nc(C(F)(F)F)nc(NS(=O)(=O)c2ccc(C(C)C)cn2)c1Oc1ccccc1OC [Example 55, 5-i.-propyl-N-[6-(2-(ethanesulfonylamino)-ethoxy)-5-(o-methoxyphenoxy)-2-trifluoromethyl-4-pyrimidinyl]pyridine-2-sulfonamide] | 6.3 | – | 6.2 | – | – | – | – | – |
| COc1ccccc1Oc1c(NS(=O)(=O)c2ccc(C(C)C)cn2)nc(N2CCOCC2)nc1OCCNS(=O)(=O)c1ccc(C)cc1 [Example 60, 5-isopropyl-N-[6-(2-(4-methylbenzenesulfonylamino)-ethoxy)-5-(o-methoxyphenoxy)-2-(N-morpholino)-4-pyrimidinyl]-2-pyridine sulfonamide] | 7.3 | 16 nM | – | – | – | – | 1440 nM | – |
| CCS(=O)(=O)NCCOc1nc(-c2ncccn2)nc(NS(=O)(=O)c2ccc(C(C)C)cn2)c1Oc1ccccc1OC [Example 70, 5-isopropyl-N-[6-(2-(ethanesulfonylamino)-ethoxy)-5-(o-methoxyphenoxy)-2-(2-pyrimidinyl)-4-pyrimidinyl]-2-pyridine sulfonamide] | – | 2070 nM | – | – | – | 891 nM | 282 nM | – |
| CCS(=O)(=O)NCCCOc1nc(C2CC2)nc(NS(=O)(=O)c2ccc(C(C)(C)C)cc2)c1Oc1ccccc1OC [Example 87] | – | – | 6.52 | 48.1 nM | – | – | – | 33.1 nM |
| COc1ccccc1Oc1c(NS(=O)(=O)c2ccc(C(C)(C)C)cc2)nc(C2CC2)nc1OCCCNS(=O)(=O)c1cccs1 [Example 88, 4-tert.-butyl-N-[6-(3-(2-thiophenesulfonylamino)-propoxy)-5-(o-methoxyphenoxy)-2-cyclopropyl-4-pyrimidinyl]-benzene-sulfonamide] | 7.95 | – | 6.16 | – | – | – | – | – |
| p-methyl-N-[6-(ethoxy-2-benzenesulfonamido)-5-(o-methoxyphenoxy)-2-(4-pyridyl)-4-pyrimidinyl]benzene-sulfonamide [Example 2] | – | – | – | 1960 nM | – | – | – | 1790 nM |
